Experimental data: ChEMBL document CHEMBL1142151, “Association of QnrB determinants and production of extended-spectrum beta-lactamases or plasmid-mediated AmpC beta-lactamases in clinical isolates of Klebsiella pneumoniae” (2007)
Values after ≈ are worked out from the molar mass of the structure shown.

Columns and labels:
Type in all cases: functional
Klebsiella pneumoniae [1] = assay: Inhibitory activity against Klebsiella pneumoniae 35
Klebsiella pneumoniae [2] = assay: Inhibitory activity against Klebsiella pneumoniae 03-222
Klebsiella pneumoniae [3] = assay: Inhibitory activity against Klebsiella pneumoniae 07-006
Escherichia coli [4] = assay: Inhibitory activity against azide-resistant Escherichia coli J53 T03-222
Escherichia coli [5] = assay: Inhibitory activity against azide-resistant Escherichia coli J53 T12-1502
Escherichia coli [6] = assay: Inhibitory activity against Escherichia coli 12-1502
Escherichia coli [7] = assay: Inhibitory activity against azide-resistant Escherichia coli J53 T07-006
Escherichia coli [8] = assay: Inhibitory activity against azide-resistant Escherichia coli J53 T35
Klebsiella pneumoniae [9] = assay: Inhibitory activity against Klebsiella pneumoniae 12-1183
Escherichia coli [10] = assay: Inhibitory activity against azide-resistant Escherichia coli J53 T12-1183
Escherichia coli [11] = assay: Inhibitory activity against azide-resistant Escherichia coli J53

Row | Structure (SMILES) | MIC (Klebsiella pneumoniae [1]) | MIC (Klebsiella pneumoniae [2]) | MIC (Klebsiella pneumoniae [3]) | MIC (Escherichia coli [4]) | MIC (Escherichia coli [5]) | MIC (Escherichia coli [6]) | MIC (Escherichia coli [7]) | MIC (Escherichia coli [8]) | MIC (Klebsiella pneumoniae [9]) | MIC (Escherichia coli [10]) | MIC (Escherichia coli [11])
1 | CCn1cc(C(=O)O)c(=O)c2ccc(C)nc21 [NALIDIXIC ACID] | > 64 µg/mL | > 64 µg/mL | > 64 µg/mL | 32 µg/mL (≈ 138 µM) | 32 µg/mL (≈ 138 µM) | 16 µg/mL (≈ 68.9 µM) | 32 µg/mL (≈ 138 µM) | 32 µg/mL (≈ 138 µM) | > 64 µg/mL | 32 µg/mL (≈ 138 µM) | 8 µg/mL (≈ 34.4 µM)
2 | O=C(O)c1cn(C2CC2)c2cc(N3CCNCC3)c(F)cc2c1=O [CIPROFLOXACIN] | 16 µg/mL (≈ 48.3 µM) | 16 µg/mL (≈ 48.3 µM) | 16 µg/mL (≈ 48.3 µM) |  |  |  |  |  | > 16 µg/mL |  | 
3 | COc1c(N2C[C@@H]3CCCN[C@@H]3C2)c(F)cc2c(=O)c(C(=O)O)cn(C3CC3)c12 [MOXIFLOXACIN] | > 8 µg/mL | 8 µg/mL (≈ 19.9 µM) | 8 µg/mL (≈ 19.9 µM) | 0.5 µg/mL (≈ 1.25 µM) | 0.5 µg/mL (≈ 1.25 µM) | 0.5 µg/mL (≈ 1.25 µM) | 1 µg/mL (≈ 2.49 µM) | 0.5 µg/mL (≈ 1.25 µM) | > 8 µg/mL | 1 µg/mL (≈ 2.49 µM) | 
4 | CC(C)(O/N=C(\C(=O)N[C@@H]1C(=O)N2C(C(=O)[O-])=C(C[n+]3ccccc3)CS[C@H]12)c1csc(N)n1)C(=O)O [CEFTAZIDIME] | > 128 µg/mL | 128 µg/mL (≈ 234 µM) | 128 µg/mL (≈ 234 µM) | 64 µg/mL (≈ 117 µM) | 64 µg/mL (≈ 117 µM) | 128 µg/mL (≈ 234 µM) | 128 µg/mL (≈ 234 µM) | 128 µg/mL (≈ 234 µM) | 128 µg/mL (≈ 234 µM) | 128 µg/mL (≈ 234 µM) | 1 µg/mL (≈ 1.83 µM)
5 | CO/N=C(\C(=O)N[C@@H]1C(=O)N2C(C(=O)O)=C(COC(C)=O)CS[C@H]12)c1csc(N)n1 [CEFOTAXIME] | > 128 µg/mL | 4 µg/mL (≈ 8.78 µM) | 64 µg/mL (≈ 141 µM) | 2 µg/mL (≈ 4.39 µM) | 64 µg/mL (≈ 141 µM) | 64 µg/mL (≈ 141 µM) | 16 µg/mL (≈ 35.1 µM) | 16 µg/mL (≈ 35.1 µM) | 16 µg/mL (≈ 35.1 µM) | 4 µg/mL (≈ 8.78 µM) | < 0.25 µg/mL
6 | C[C@H]1COc2c(N3CCN(C)CC3)c(F)cc3c(=O)c(C(=O)O)cn1c23.C[C@H]1COc2c(N3CCN(C)CC3)c(F)cc3c(=O)c(C(=O)O)cn1c23.O [LEVOFLOXACIN] | 4 µg/mL | 16 µg/mL | 8 µg/mL | 0.25 µg/mL | 0.25 µg/mL | 0.25 µg/mL | 0.25 µg/mL | 0.25 µg/mL | > 16 µg/mL |  | 
7 | CO[C@@]1(NC(=O)Cc2cccs2)C(=O)N2C(C(=O)O)=C(COC(N)=O)CS[C@@H]21 [CEFOXITIN] | 32 µg/mL (≈ 74.9 µM) | 16 µg/mL (≈ 37.4 µM) | 16 µg/mL (≈ 37.4 µM) | 4 µg/mL (≈ 9.36 µM) | > 128 µg/mL | > 128 µg/mL | 4 µg/mL (≈ 9.36 µM) | 4 µg/mL (≈ 9.36 µM) | > 128 µg/mL | 32 µg/mL (≈ 74.9 µM) | 4 µg/mL (≈ 9.36 µM)
